Source: patent USRE37534E1, “Pharmaceutical compositions” (BTG International Limited, priority 1982, dated 2002)

Legend:
rat jejunal sac = assay: Permeation of everted rat jejunal sac by iron complexes; assay type: in vitro ADME; settings: for Relative iron uptake, 15 minutes / Relative iron uptake, 60 minutes: relative to ferric chloride as 1
Description: Rats (male Sprague Dawley, 60 g) were killed and the jejunum removed, everted and cut into three segments (4 cm length). […] The contents of the sac were counted for ^59Fe and measured spectrophotometrically. […] The procedure described above was used to compare the uptake of iron from buffer containing differing molar proportions of maltol:iron.

human erythrocytes = assay: Permeation of iron complexes into human erythrocytes (59Fe distribution ratio); assay type: cell-based; settings: 37° C.; for Distribution ratio (concentration in erythrocytes/concentration in medium): 1 hour, pH 7.4
Experimental: Following this period of incubation an aliquot of the erythrocyte/medium mixture was placed above a layer of silicone oil (ρ=1.06) and the erythrocytes separated by centrifugation through the oil. The ^59Fe levels associated with the erythrocytes and the incubation medium were then counted and presented as a distribution ratio (concentration in erythrocytes/concentration in medium).

[1] = In vivo 59Fe uptake after administration into the duodenum of the rat; settings: 100 μg Fe into duodenum; for introduction of iron via the rat intestine (59Fe in organs), comparison: 1-6 hours, FIGS. 1-4
Experimental: Groups of rats (300-350 g) were anaesthetised with nembutal (0.25 ml) and then with ether. […] The abdominal well was then closed with a suture. […] In the case of the data for blood and sternum (bone marrow) the counts given are cpm/ml and cpm/g respectively, whilst in all other cases they are the total cpm counts.

[2] = Iron take-up in human subjects by whole body counting; assay type: in vivo; settings: for level of take-up of iron by whole body counting: normal subject
Experimental: Capsules containing 3:1 iron(III) maltol, […] were prepared according to the procedure of Example 7^(1) with the modification that at 3:1 molar ratio of maltol:iron was used (no free maltol therefore being present in the capsules) and that a proportion of the ferric chloride used in the preparation of the iron maltol was radiolabelled as ^59Fe. The capsules each contained 10 mg of iron, this amount being labelled with 1 microcurie of ^59Fe, and were subjected to a single coating procedure.
The test involved two normal subjects, i.e. not suffering from iron deficiency, one of whom took a 10 mg dose of iron (one capsule) and the other whom took a 20 mg does of iron (two capsules). The capsule or capsules were taken after fasting overnight and fasting was then continued for a further 2 hours. The take-up of iron by the subjects was followed by means of whole body counting, using a calibrated body counter, reading being taken 4 to 8 hours after ingestion of the capsules to establish a base level and then after 7 and 14 days. Excretion of iron by the subjects was followed through the counting, in a large volume counter calibrated for iron, of daily urine samples over 3 days and daily stool samples over 10 days.

[3] = Affinity / stability constant of ligand for iron(III); assay type: physicochemical
Description: (§1) In order to solubilise iron(III) hydroxide, log Ksol must be greater than 0. The value of Ksol for maltol is 0.8 and this is also sufficiently large to prevent appreciable competition from phytate, phosphate, thiols and other potential ligands likely to occur in the intestinal lumen.

[4] = target: bovine serum albmen (BSA) (Bos taurus, UniProt P02769); assay: Binding of complex to BSA (gel permeation column); settings: as haemoglobin procedure, pH 7.4
bovine serum albmen (BSA), sequence (P02769 25-607): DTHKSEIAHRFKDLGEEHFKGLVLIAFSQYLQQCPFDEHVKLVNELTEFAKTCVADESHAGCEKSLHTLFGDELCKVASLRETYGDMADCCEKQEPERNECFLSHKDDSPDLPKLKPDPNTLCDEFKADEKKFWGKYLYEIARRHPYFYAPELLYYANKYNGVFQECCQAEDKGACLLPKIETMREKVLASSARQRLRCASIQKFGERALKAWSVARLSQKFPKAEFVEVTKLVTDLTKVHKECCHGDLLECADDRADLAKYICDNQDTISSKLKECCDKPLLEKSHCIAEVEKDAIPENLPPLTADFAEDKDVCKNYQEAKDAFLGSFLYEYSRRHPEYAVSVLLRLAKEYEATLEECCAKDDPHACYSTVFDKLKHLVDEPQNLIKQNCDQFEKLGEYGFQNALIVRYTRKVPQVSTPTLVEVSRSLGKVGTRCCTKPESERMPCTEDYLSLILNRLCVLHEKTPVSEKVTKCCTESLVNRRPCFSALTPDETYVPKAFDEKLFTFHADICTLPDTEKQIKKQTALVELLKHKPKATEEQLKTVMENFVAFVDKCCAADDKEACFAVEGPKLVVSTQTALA
Experimental: (§2) The ability of the iron complex of maltol to bind to haemoglobin is investigated by studying the elution profile of a ^59Fe label when a mixture of haemoglobin and the ^59Fe-labeled complex (at 1 mM concentration) in NaCl (130 mM) buffered to pH 7.4 by Tris hydrochloride is applied to a PH-10 column (Sephadex G-10 gel permeation column—Pharmacia).
The ability of the iron complex of maltol to bind to bovine serum albmen (BSA) is investigated through a similar procedure in which the complex is applied to a column with BSA rather than haemoglobin.

haemoglobin = haemoglobin (Homo sapiens, UniProt P68871+P69905); assay: Binding of 59Fe-labelled complex to haemoglobin (gel permeation column); settings: 59Fe-labelled complex 1 mM, NaCl 130 mM, pH 7.4
haemoglobin, sequence (P69905 2-142 limits assumed): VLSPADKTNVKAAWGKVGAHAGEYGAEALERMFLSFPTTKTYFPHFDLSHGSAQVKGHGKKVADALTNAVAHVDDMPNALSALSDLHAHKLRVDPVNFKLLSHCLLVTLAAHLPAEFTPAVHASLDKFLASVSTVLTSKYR
haemoglobin, sequence (P68871 2-147 limits assumed): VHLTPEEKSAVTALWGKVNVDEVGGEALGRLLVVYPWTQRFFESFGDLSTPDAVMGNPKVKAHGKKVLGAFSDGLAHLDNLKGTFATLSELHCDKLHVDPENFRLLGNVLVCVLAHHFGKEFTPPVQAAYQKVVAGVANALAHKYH
Experimental: as §2

[5] = In vivo 59Fe blood kinetics and tissue distribution in the cat, intravenous; settings: for Net ^59Fe content (cpm/g) / Net total ^59Fe content (cpm): 2 μCi given, figures adjusted to 2.2×10^6 cpm
Experimental: Body temperature was monitored with a rectal thermometer.
The iron maltol complex (100 μg Fe) alone (3:1 molar ratio of maltol:iron) and together with a large excess of maltol (40:1 molar ratio of maltol:iron) was injected intravenously in separate experiments and 0.25 ml samples of blood were taken in intervals. The apparent volume of distribution of the compound was calculated by extrapolation of the log-linear blood concentration curve to zero.
The amount of ^59Fe administration in this experiment was 4 μCi or 2.2×10^6 cpm.

[6] = in vivo
Description: (§3) In each animal the trachea was cannulated to maintain a clear airway and to allow positive pressure artificial respiration if necessary. The left femoral vien was cannulated for the intravenous administration of drugs and physiological saline solution. Arterial blood pressure was monitored by a Washington pressure transducer through a cannula inserted into the femoral artery of the right hind leg. Arterial blood samples were taken at appropriate intervals from a short cannula inserted into an external carotid artery. Body temperature was monitored with a rectal thermometer. Each animal was given heparin (1000 iu/kg) as anticoagulant and additional small amounts of pentobarbitone sodium if needed to maintain a satisfactory level of anaesthesia.
(§4) If those animals where the iron compounds were to be administered into the duodenum, a mid-line incision was made in the abdomen to reveal the intestines. A cannula was then inserted through a small cut such that its tip rested approximately 5 cm below the opening of the bile duct. The cannula was then sutured in place and the abdominal wall closed with stitches.
(§5) The iron maltol complex (100 μg Fe) was also administered to the duodenum of the cat in the presence of a 40 fold excess of maltol followed by 5 ml of 150 ml tris hydrochloride buffer (pH 7.4).

[7] = In vivo 59Fe blood level and tissue distribution in the cat, per duodenum; settings: 2.65×10^6 cpm administered
Description: as §3, §4, §5

[8] = Ksol (ability to solubilise iron(III) hydroxide); assay type: physicochemical
Description: as §1

[9] = Partition coefficient Kpart n-octanol / Tris hydrochloride; assay type: physicochemical; settings: pH 7.4
Experimental: An indication of the properties of a compound in this respect is provided by the value of the partition coefficient (Kpart) obtained on partition between n-octanol and Tris hydrochloride (20 mM, pH 7.4; Tris representing 2-amino-2-hydroxymethylpropane 1,3-diol) at 20° C. and expressed as the ratio (concentration of compound in organic phase)/(concentration of compound in aqueous phase).
The partition coefficient Kpart (concentration in n-octanol/concentration in aqueous phase) between n-octanol and Tris hydrochloride (20 mM, pH 7.4) of maltol and of its 3:1 iron complex is measured at 10^−4 M by spectrophotometry. Acid washed glassware is used throughout and, following mixing for 1 minute, the aqueous/n-octanol mixture is […] at 1000 g for 30 seconds. The two resulting phases are separated for a concentration determination by spectrophotometry on each. For maltol, the range 220-340 nm is used for the concentration determination whilst for the complex the range 340-640 nm is used.

[Cl][Fe]([Cl])[Cl] [FeCl3]
Relative iron uptake, 15 minutes (rat jejunal sac): 1
Relative iron uptake, 60 minutes (rat jejunal sac): 1

O=C([O-])/C=C/C(=O)[O-].[Fe+2] [Fe^II fumarate]
Relative iron uptake, 15 minutes (rat jejunal sac): 4.0
Relative iron uptake, 60 minutes (rat jejunal sac): 1.8

O=C([O-])[C@H](O)[C@@H](O)[C@H](O)[C@H](O)CO.O=C([O-])[C@H](O)[C@@H](O)[C@H](O)[C@H](O)CO.[Fe+2] [Fe^II gluconate]
Distribution ratio (concentration in erythrocytes/concentration in medium) (human erythrocytes; 1 mM): 0.08
introduction of iron via the rat intestine (59Fe in organs), comparison [1]: more effective than the sulphate or the EDTA complex
Relative iron uptake, 15 minutes (rat jejunal sac): 1.6
Relative iron uptake, 60 minutes (rat jejunal sac): 0.8

O=C([O-])CCC(=O)[O-].[Fe+2] [Fe^II succinate]
Relative iron uptake, 15 minutes (rat jejunal sac): 2.0
Relative iron uptake, 60 minutes (rat jejunal sac): 1.0

O=S(=O)([O-])[O-].[Fe+2] [Fe^II sulphate]
level of take-up of iron by whole body counting ([2]; 10 mg dose, at 7 days): 13%
level of take-up of iron by whole body counting ([2]; 20 mg dose, at 7 days): 6%
Relative iron uptake, 15 minutes (rat jejunal sac): 2.4
Relative iron uptake, 60 minutes (rat jejunal sac): 1.4

Cc1occc(=O)c1[O-].Cc1occc(=O)c1[O-].Cc1occc(=O)c1[O-].[Fe+3] [Fe^III (maltol)3]
Distribution ratio (concentration in erythrocytes/concentration in medium) (human erythrocytes; 3 mM): 1.60
time for uptake to reach equilibrium (human erythrocytes; erythrocytes): about 15 minutes
thermodynamic stability constant ([3]; 3:1 complex): 30
ability to bind to BSA [4]: little ability to bind to BSA
introduction of iron via the rat intestine (59Fe in organs), comparison ([1]; listed as maltol complex): more efficient than iron(III) EDTA
introduction of iron via the rat intestine (59Fe in organs), comparison ([1]; listed as neutral 3:1 maltol:iron(III) complex): markedly superior to iron(II) sulphate
binding of the complex to haemoglobin (haemoglobin): no evidence if found for binding
loss of iron in the urine ([2]; daily urine samples over 3 days): essentially zero loss of iron
level of take-up of iron by whole body counting ([2]; 10 mg dose of iron, oral capsule, 14 day figure): 19%
level of take-up of iron by whole body counting ([2]; 20 mg dose of iron, oral capsules, 14 day figure): 11%
concentration dependence of uptake (rat jejunal sac; 0.5 to 10 mM, uptake increased linearly): does not show saturation kinetics
Iron uptake (n mole) (rat jejunal sac; iron transferred into serosal contents of sac, basal uptake subtracted, by maltol/iron molar ratio): 30.0 n mole
time course of uptake (rat jejunal sac; jejunal sac, up to 90 minutes): linear for a period 90 minutes
Relative iron uptake, 15 minutes (rat jejunal sac): 40
Relative iron uptake, 60 minutes (rat jejunal sac): 5.8
59Fe directed to the bone marrow (bulk, inferred) ([5]; in vivo, iv): approximately 90%
dose located in combined tissue of heart, liver and spleen ([5]; in vivo, iv): approximately 10%
dose located in the urine ([5]; in vivo, iv): less than 0.2%

O=C([O-])CN(CCN(CC(=O)[O-])CC(=O)O)CC(=O)[O-].[Fe+3] [Fe^III EDTA]
levels of 59Fe in the intestine wall and blood ([1]; FIG. 3): extremely low
plasma levels of radioactivity [6]: hardly exceeded the background level
Net ^59Fe content (cpm/g) ([7]; Heart): 188 cpm/g
Net total ^59Fe content (cpm) ([7]; Heart): 2,878 cpm
Net ^59Fe content (cpm/g) ([7]; Kidney): 1,762 cpm/g
Net total ^59Fe content (cpm) ([7]; Kidney): 19,913 cpm
Net ^59Fe content (cpm/g) ([7]; Liver): 499 cpm/g
Net total ^59Fe content (cpm) ([7]; Liver): 29,574 cpm
Net ^59Fe content (cpm/g) ([7]; Skeletal muscle): 117 cpm/g
Net ^59Fe content (cpm/g) ([7]; Spleen): 200 cpm/g
Net total ^59Fe content (cpm) ([7]; Spleen): 880 cpm
Net ^59Fe content (cpm/g) ([7]; Sternum (bone marrow)): 917 cpm/g
Net ^59Fe content (cpm/g) ([7]; Urine (5 ml sample)): 36,306 cpm/g
Net total ^59Fe content (cpm) ([7]; Urine (15 ml)): 544,596 cpm
Net ^59Fe content (cpm/g) ([5]; Heart, i.v.): 209 cpm/g
Net total ^59Fe content (cpm) ([5]; Heart, i.v.): 3,248 cpm
Net ^59Fe content (cpm/g) ([5]; Kidney, i.v.): 1,134 cpm/g
Net total ^59Fe content (cpm) ([5]; Kidney, i.v.): 21,770 cpm
Net ^59Fe content (cpm/g) ([5]; Liver, i.v.): 261 cpm/g
Net total ^59Fe content (cpm) ([5]; Liver, i.v.): 19,600 cpm
Net ^59Fe content (cpm/g) ([5]; Skeletal muscle, i.v.): 95 cpm/g
Net ^59Fe content (cpm/g) ([5]; Spleen, i.v.): 162 cpm/g
Net total ^59Fe content (cpm) ([5]; Spleen, i.v.): 1,814 cpm
Net ^59Fe content (cpm/g) ([5]; Sternum (bone marrow), i.v.): 1,164 cpm/g
Net total ^59Fe content (cpm) ([5]; Urine (19 ml), i.v.): 1,180,900 cpm
Net ^59Fe content (cpm/g) ([5]; Urine (19 ml, 2 ml sample), i.v.): 62,156 cpm/g
rate constant of the elimination from the blood, linear phase of the regression ([5]; i.v.): 0.023 min⁻¹
dose located in the urine ([5]; i.v., end of experiment): over 50%

Cc1occc(=O)c1O [maltol, 3-hydroxy-2-methyl-4-pyrone]
log β3 (affinity for iron) ([3]; ligand maltol, iron): 30
Ksol ([8]; ligand, log Ksol must be greater than 0 to solubilise iron(III) hydroxide): 0.8
logD [9]: -0.18

Fe^III ascorbate
Distribution ratio (concentration in erythrocytes/concentration in medium) (human erythrocytes; 1 mM): 0.12
Relative iron uptake, 15 minutes (rat jejunal sac): 0.4
Relative iron uptake, 60 minutes (rat jejunal sac): 0.8

Fe^III citrate
Distribution ratio (concentration in erythrocytes/concentration in medium) (human erythrocytes; 1 mM): 0.05
Relative iron uptake, 15 minutes (rat jejunal sac): 2.0
Relative iron uptake, 60 minutes (rat jejunal sac): 1.8

apotransferrin: iron-free transferrin, reference for log Ksol
log Ksol [8]: 6.0
